Source: patent publication US10517926B2, “Oligopeptide having proinflammatory cytokine secretion-inhibiting activity” (Osaka University, priority 2015, dated 2019)

Tested on: THP1 cells
Experiment: Proinflammatory cytokine secretion inhibition, human macrophage cells
Format: cell-based
Details: MHP6 10-100 μg/ml or MHP1 100 μg/ml, LPS 2 ng/ml, 24 hours, FIG. 14
Method: THP1 cells (human-derived macrophage cell line) were cultured in a DMEM medium (+4% FBS) containing MHP6 (human-derived; final concentration: 10, 30, 50, or 100 μg/ml) or MHP1 (mouse-derived; final concentration: 100 μg/ml), and LPS (final concentration: 2 ng/ml) for 24 hours by a standard method. After culture, the concentration of IL-6 in the medium was measured by the ELISA method.

LMVYVVKTSIKIPSSHNLMKGGSTKNWSGN (listed as Mus musculus) [MHP1]
proinflammatory cytokine (IL-6) secretion-inhibiting activity on human-derived macrophage cells: exhibited proinflammatory cytokine secretion-inhibiting activity
